Source: patent US7456294B2, “Hairpin polyamide” (Japan Science and Technology Agency, priority 2002, dated 2008)
“Also recorded” adds a separate entry of the source.

Columns and labels:
[1] = tested on: DNA fragment of 450 base pairs; details: 450 base pair DNA fragment; cited from earlier work
long chain DNA (pUC-I′) = assay: Long chain DNA (pUC-I′) alkylation, 24 hours, sequence gel electrophoresis; assay type: biochemical; details: for sequence-specific alkylation of long chain DNA: 100 nM to 12.5 nM, 23° C.
Description: The reaction of the hairpin polyamides 1 and 12 to 14 with a DNA was investigated using a long chain DNA (pUC-I′). The alkylation reaction was continued for 24 hours and a sequence gel electrophoresis was conducted for the analysis.
On the other hand, the alkylation of ImPyPy-γ-ImPyPyDu86 (12) was not observed at 100 nM to 12.5 nM (lanes 5 to 8). […] In the description made above or below, a -γ- means a γ-aminobutyric acid residue.
A DNA fragment (pUC-I′) was synthesized by a PCR method using pUC 18 as a template together with a 5′-texas red-labeled 20 base pair primer: 5′-[…]-3′ (pUC 18 forward, 780-799) and 20 base pair primer: 5′-[…]-3′ (pUC18 reverse, 1459-1478). The resultant DNA fragments were purified by filtration through a Suprec-02, and then examined for the UV absorption to determine the respective concentrations.
(§1) To 10 μl in total of 5 mM sodium phosphate buffer (pH7.0), a standard reaction solution containing 10 nM of the DNA fragment (pUC-I′) whose 5′-terminal had been labeled with the texas red, 10% (v/v) DMF and an agent at the concentration indicated in FIG. 1 was added in a microcentrifugation tube (Eppendorf) and allowed to stand for 24 hours at 23° C.
(§2) A bovine thymus DNA (1 mM, 1 μL) was added for quenching, and the mixture was shaken for 5 minutes at 90° C. The DNA obtained by centrifugation under reduced pressure was combined with 8 μl of a loading color (solution of *FUGENE* Red in DMF) and dissolved, and then shaken for 20 minutes at 94° C. Immediately after this, the mixture was cooled rapidly to 0° C., and a 2 μl aliquot was subjected to an electrophoresis on a 6% denature polyacrylamide gel using a HITACHI 5500-S DNA sequencer system.

DNA fragment (pUC-I′) = assay: Alkylation of pUC-I′ DNA within a short period (5 minutes, 1 hour, 2 hours), gel electrophoresis; assay type: biochemical
Description: In order to investigate the difference in the reactivity between Compounds 1 and 13 in more detail, the alkylation within a short period was analyzed.
as §1, with “FIG. 2” for “FIG. 1”, “for 5 minutes, 1 hour and 2 hours, respectively” for “for 24 hours”
as §2, with “After each reaction time, a bovine” for “A bovine”

[2] = tested on: GFP protein expression coding region; assay: Inhibition of mRNA transcription in GFP coding region with T7 promoter and T7 polymerase; assay type: biochemical; details: early stage experiment
From the text: The condition of the experiment has not been established yet, and a further detailed analysis of the transcription inhibition mechanism is required. […] It leads to a breakthrough toward the development of a novel knockout gene method.

[3] = tested on: DNA oligomers 5′-CAAGTCAGAG/5′-CTCTGACTTG; assay: Short chain DNA (10 bp) alkylation followed by HPLC; assay type: biochemical; details: for alkylation of DNA oligomer: 150 μM agent and DNA, 23° C.
From the text: In order to clarify the reactive base site in an alkylation site, the alkylation with Polyamides 12, 13 and 14 was investigated by an HPLC using DNA oligomers 5′-CAAGTCAGAG/5′-CTCTGACTTG as substrates. […] Also by decomposing the oligomers by heating and investigating the degradation products of the oligomers by the method which the inventors reported previously (Tetrahedron Lett. 1990, 31, 7197; Tetrahedron Lett. 1993, 34, 2179 and the like), it was proven that the alkylation reaction occurred at the site indicated by an arrow. […] These findings may be attributable to the difference in the reactivity between the Du and the Du86 similarly to the reactivity on the long chain DNA.
A DNA oligomer synthesized by a DNA synthesizer was employed. To 50 μl in total of 50 mM sodium cacodylate buffer (pH7.0), a standard reaction solution containing 150 μM of the double-stranded DNA fragment, 10% (v/v) DMF and each agent of Compounds 1, 12, 13 and 14 (150 μM) was added in a microcentrifugation tube (Eppendorf) and allowed to stand at 23° C.
The advancement of the reaction was ensured by an HPLC using a *CHEMCOBOND* 5-ODS-H column (4.6×150 mm). The HPLC conditions are shown below.
[Linear gradient of 50 mM ammonium formate: 0-50% acetonitrile (0 to 40 min), flow rate: 1.0 mL/min, 254 nm].

long chain DNA (pUC-II) = assay: Long chain DNA (pUC-II) alkylation, 24 hours, sequence gel electrophoresis; assay type: biochemical; details: nM concentrations, 23° C.
Description: For the purpose of comparing the hairpin polyamides 14, 15 and 16, the DNA alkylation reaction employing a long chain DNA (pUC-II) was conducted.
With this regard, the inventors considered that this problem can be solved by replacing the Du86 with CBI: 1,2,9,9a-tetrahydrocyclopropa[c]benz[e]indole-4-one (22), the method for synthesizing which had already been reported by Boger et al. (J. Org. Chem. 1992, 57, 2873; J. Org. Chem. 1995, 60, 1271 and the like). The benefit of using CBI includes the ability of using commercially available 1,3-dihydroxynaphthalene as a starting material and the ability of providing both enantiomers by an optical resolution. Accordingly, the inventors newly synthesized Compound 23 by replacing the Du86 part of Compound 16 with CBI. Then the inventors evaluated the DNA-alkylating ability using a long chain DNA (pUC-II).
A DNA fragment (pUC-II) was synthesized by a PCR method using pUC 18 as a template together with a 5′-texas red-labeled 21 base pair primer: 5′-[…]-3′ (pUC 18 reverse, 1861-1881) and 18 base pair primer: 5′-TGTAAAACGACGGCCAGT-3′ (pUC18 forward, 378-395). The resultant DNA fragments were purified by filtration through a Suprec-02, and then examined for the UV absorption to determine the respective concentrations.
as §1, with “fragment (pUC-II)” for “fragment (pUC-I′)”, “FIG. 4” for “FIG. 1”
A bovine thymus DNA (1 mM, 1 μL) was added for quenching, and the mixture was shaken for 5 minutes at 90° C. The DNA obtained by centrifugation under reduced pressure was combined with 8 μl of a loading color (solution of *FUGENE* Red in DMF) and dissolved, and then shaken for 20 minutes at 94° C. […]

[4] = tested on: 39 human cultured cancer cell lines; assay: Cytostatic activity on 39 human cultured cancer cell lines; assay type: cell-based; parameters: mean IC50 values: scale not given here; details: for mean IC50 values: mean over 39 human cancer cell lines
From the text: The first is the proportional relationship between the DNA-alkylating ability and the cytostatic activity (FIG. 8). For example, the mean IC50 values of ImPyDu (−4.59), ImPyDu86 (−5.95) and ImPyLDu86 (−8.25) were reduced gradually as the DNA-alkylating ability was increased.
A further interesting result was obtained when comparing the fingerprint patterns indicating the cytostatic activity of the hairpin sequence-specific alkylating agents ImPyPy-γ-ImPyLDu 36 (13) and ImPyPy-γ-ImPyPyLDu 36 (14) (FIG. 9). In general, a high correlation coefficient (r=0.75 to 1.0) is known to be obtained when comparing the fingerprint patterns between the drugs whose action mechanisms are analogous to each other, and in fact an extremely high analogy was observed among a DNA intercalator, doxorubicin, daunorubicin and epirubicin. […] The influence on the cytostatic activity attributable only to the difference in the base sequence-recognizing ability in spite of the analogy in the structure as observed with these Compound 13 and 14 has never been reported, and thus is one of the most important findings.

[5] = tested on: DNA sequence PyG(A/T) CPu; details: cited from earlier work

COC(=O)[C@]1(C)NC2=C(C1=O)[C@@]13C[C@@H]1CN(C(=O)c1cc(NC(=O)c4cc(NC(=O)c5nc(NC(=O)CCCNC(=O)c6cc(NC(=O)c7cc(NC(=O)c8nc(NC(C)=O)cn8C)cn7C)cn6C)cn5C)cn4C)cn1C)C3=CC2=O [Compound 1, ImPyPy-γ-ImPyPyDu]
reaction efficiency of sequence-specific DNA alkylation [1]: 7%
time for sequence-specific alkylation of DNA to complete [1]: ≥ 1 week
sequence-specific alkylation of long chain DNA (long chain DNA (pUC-I′); 24 hours): reacted selectively at G in the 5′-GTCAG-3′ sequence in Site 3
alkylation after short reaction time (DNA fragment (pUC-I′); one hour): no reaction

COC(=O)C1=C(C)CC2=C1[C@@]13C[C@@H]1CN(C(=O)/C=C/c1cc(NC(=O)c4nc(NC(=O)CCCNC(=O)c5cc(NC(=O)c6cc(NC(=O)c7nc(NC(C)=O)cn7C)cn6C)cn5C)cn4C)cn1C)C3=CC2=O [Compound 13, AcImPyPy-γ-ImPyLCPI]
mRNA produced by transcription inhibition due to alkylation of the adenine in the 387 nt position [2]: observed successfully
consumption of starting DNA (long chain DNA (pUC-I′); 100 nM (lane 9), 24 hours): disappearance of almost all starting DNA
sequence-specific alkylation of long chain DNA (long chain DNA (pUC-I′); 24 hours): reacted at A in the GTCAG sequence of the site 3
alkylation after short reaction time (DNA fragment (pUC-I′); 5 minutes): caused the alkylation
reactivity on the DNA oligomers compared with other compounds [3]: dramatically increased reactivity
alkylation of DNA oligomer ([3]; after 5 minutes): 75%

COC(=O)c1c(C)[nH]c2c1[C@@]13C[C@@H]1CN(C(=O)/C=C/c1cc(NC(=O)c4cc(NC(=O)c5nc(NC(=O)CCCNC(=O)c6cc(NC(=O)c7cc(NC(=O)c8nc(NC(C)=O)cn8C)cn7C)cn6C)cn5C)cn4C)cn1C)C3=CC2=O [Compound 14, AcImPyPy-γ-ImPyPyLCPI]
sequence-specific alkylation of long chain DNA (long chain DNA (pUC-I′); 24 hours): slightly reduced reactivity when compared with Compound 13
sequence-specific alkylation of pUC-II DNA (long chain DNA (pUC-II)): sequence-specific alkylation was observed at 5′-TGACCA-3′; also recorded: reactivity is far lower than those of Compounds 15 and 16
reactivity on the DNA oligomers compared with other compounds [3]: almost equivalent to Compound 1 and poorer than Compound 13
alkylation of DNA oligomer ([3]; after 2 hours): 46%

COC(=O)c1c(C)[nH]c2c1[C@@]13C[C@@H]1CN(C(=O)/C=C/c1cc(NC(=O)c4cc(NC(=O)c5nc(NC(=O)CCNC(=O)c6cc(NC(=O)c7cc(NC(=O)c8nc(NC(=O)c9nccn9C)cn8C)cn7C)cn6C)cn5C)cn4C)cn1C)C3=CC2=O [Compound 16, H-ImImPyPy-γ-ImPyPyLCPI]
sequence-specific alkylation of pUC-II DNA (long chain DNA (pUC-II)): sequence-specific alkylation was observed at 5′-TGACCA-3′

AcImImPyPy-γ-ImPyPyLDu86 [Compound 15]
sequence-specific alkylation of pUC-II DNA (long chain DNA (pUC-II)): sequence-specific alkylation was observed at 5′-TGACCA-3′

AcImPyPy-γ-ImPyPyCPI [Compound 12]
sequence-specific alkylation of long chain DNA (long chain DNA (pUC-I′); 24 hours): not observed
alkylation of long chain DNA at elevated concentration (long chain DNA (pUC-I′); 10 μM): no occurrence of the alkylation
reactivity on the DNA oligomers compared with other compounds [3]: extremely poorer when compared with Compound 1
alkylation of DNA oligomer ([3]; after 17 hours): 13%

ImPyDu
mean IC50 values [4]: −4.59

ImPyDu86
mean IC50 values [4]: −5.95

ImPyLDu86
mean IC50 values [4]: −8.25
alkylation induced, share of the compound employed [5]: 70%

ImPyPyLDu86
change of cytostatic activity due to the vinyl linker between polyamide and Du86 [4]: dramatic increase in the cytostatic activity

PyPyLDu86
change of cytostatic activity due to the vinyl linker between polyamide and Du86 [4]: dramatic increase in the cytostatic activity

PyPyPyLDu86
change of cytostatic activity due to the vinyl linker between polyamide and Du86 [4]: dramatic increase in the cytostatic activity
